Assays:
[1] = test system: COX-2, IL-6, IL-8, ICAM-1, VCAM-1, PTX3, MCP-1 mRNA expression in HUVEC; test: Real time RT-PCR of TNFα-induced mRNA expression in HUVEC; format: cell-based, human; conditions: for ICAM-1 mRNA expression induced by TNFα / PTX3 mRNA expression induced by TNFα: 1 ng/ml TNFα 6 h
Procedure: FIGS. 1 and 2A show the effects of Compound 3 on mRNA expression of genes of interest encoding inflammatory or oxidative markers. mRNA expression is evaluated by quantitative RT-PCR in HUVEC after 6 h of TNFα stimulation. Data are means±S.D. (n=3). Statistical analysis: one way ANOVA followed by Bonferroni, Versus CTL NS p>0.05, * p<0.05, ** p<0.01, *** p<0.001; Versus TNFα $ p<0.05, $$ p<0.01, $$$ p<0.001.
HUVEC are seeded at 67,500 cells/flask in gelatin-coated T25 in EGM. After 4 days, cell medium is replaced by EBM containing or not containing Compound 3 at different concentrations. After 1 h of preincubation, 1 ng/ml TNFα is added or is not into the T25 flasks. 6 h after, cell medium is discarded and cells are washed twice with PBS. Total RNA extraction is performed by using QIAGEN RNeasy mini Kit according to the protocol provided by the manufacturer (QIAGEN). RNA concentration for each sample is determined by Nanodrop Spectrophotometer ND-100 (ISOGEN, Life Science). Reverse transcription was performed using Transcriptor First Strand cDNA Synthesis Kit Roche (Roche Applied Science). Transcript levels are determined by quantitative reverse transcription polymerase chain reaction (qRT-PCR). cDNA obtained by reverse transcription of total RNA are diluted 100 times and 5 μl are mixed with 12.5 μl of Fast start Universal SYBRGreen Master (Roche), 2.5 μl MilliQ water, 2.5 μl of diluted primer forward and 2.5 μl of diluted primer reverse to have an optimal and final concentration of 300 nM or 900 nM. PCRs are carried out in a real-time PCR cycler (Applied Biosystems 7900HT Fast Real-time PCR System): a hot start at 95° C. for 5 min is followed by 40 cycles at 95° C. for 15 s and 65° C. for 1 min. Samples are compared using the relative cycle threshold (Ct) method. To normalize the load of cDNA for each sample, RPL13 is used as the endogenous standard. Primer sequences are listed below.
List of primers used in real time RT-PCR.

[2] = test system: VCAM-1 and ICAM-1 protein expression in HUVEC; test: Western blot of VCAM-1 and ICAM-1 protein expression induced by TNFα in HUVEC; format: cell-based, human; conditions: TNFα 6 h, western blot normalised by β-actin
Procedure: FIGS. 2B and 2C show the effect of Compound 3 on VCAM-1 and ICAM-1 protein expression induced by TNFα in HUVEC after 6 h of incubation. B) Total protein extracts are recovered and analysed by western blot. β-actin serves as the loading control. C) Quantification of optical density of each band. Results are expressed as the ratio between the optical density of VCAM-1 or ICAM-1 and the optical density of β-actin.
HUVEC are seeded at 187,500 cells/flask in gelatin-coated T75 in EGM. After 4 days, cell medium is replaced by EBM containing or not containing Compound 3 at different concentrations. After 1 h of preincubation, 1 ng/ml TNFα is added or is not added into the T75 flasks. 6 h after, cell media are collected and centrifuged at 500 g for 5 min to pellet and pool floating cells with adherent cells. Adherent cells are washed twice with cold PBS and are collected in 1.5 ml of PBS. Harvested cells are then centrifuged at 500 g for 5 min at 4° C. […] Protein concentration is measured using Pierce method (Pierce 660 nm protein assay, Thermoscientific, USA) with the Ionic Detergent Compatibility Reagent (Thermoscientific, USA). […] Antibody binding was analysed with the scanner Odyssey Image System (Li-COR, Biosciences, USA) and Odyssey V3.0 software. Optical density of each band is also determined by using the software.

[3] = from 100 nM, not increased at 300 nM and 600 nM

## CC(C)(C)N.O=C(O)CC/C=C\C[C@@H]1CO[C@H](c2ccccc2Cl)O[C@@H]1c1ccccc1O [Compound 3, tert-butylammonium (Z)-6-((2S,4S,5R)-2-(2-chlorophenyl)-4-(2-hydroxyphenyl)-1,3-dioxan-5-yl)hex-4-enoate]
[1]; 10 nM
  ICAM-1 mRNA expression induced by TNFα: no effect
  PTX3 mRNA expression induced by TNFα: no effect
[1]; [3]
  ICAM-1 mRNA expression induced by TNFα: significant decrease
  PTX3 mRNA expression induced by TNFα: significant decrease
[1]; Compound 3 at the highest concentration, without TNFα
  mRNA expression of all genes of interest (COX-2, IL-6, IL-8, ICAM-1, VCAM-1, PTX3, MCP-1): no effect
[2]
  ICAM-1 protein expression induced by TNFα: no effect
  VCAM-1 protein expression induced by TNFα: no effect
